Calls of active or inactive are those of the source. The calls are words filed in the database; no cut-off is given here.
Assays:
Glycine max = assay: Inhibition of soybean lipoxygenase assessed as conversion of sodium linoleate to 13-hydroperoxylinoleic acid at 100 uM by UV absorbance assay
[1] = Antioxidant activity against AAPH-induced lipid peroxidation assessed as inhibition of conjugated diene hydroperoxide production at 100 uM; assay type: functional
HepG2 [2] = assay: Hepatotoxicity against human HepG2 cells assessed as cell viability after 24 hrs by MTT assay; assay type: toxicity, cell-based; details: hepg2, 24 h
Acetylcholinesterase [3] = target: T1, Acetylcholinesterase (Electrophorus electricus, UniProt O42275)
T1 sequence (O42275 whole entry): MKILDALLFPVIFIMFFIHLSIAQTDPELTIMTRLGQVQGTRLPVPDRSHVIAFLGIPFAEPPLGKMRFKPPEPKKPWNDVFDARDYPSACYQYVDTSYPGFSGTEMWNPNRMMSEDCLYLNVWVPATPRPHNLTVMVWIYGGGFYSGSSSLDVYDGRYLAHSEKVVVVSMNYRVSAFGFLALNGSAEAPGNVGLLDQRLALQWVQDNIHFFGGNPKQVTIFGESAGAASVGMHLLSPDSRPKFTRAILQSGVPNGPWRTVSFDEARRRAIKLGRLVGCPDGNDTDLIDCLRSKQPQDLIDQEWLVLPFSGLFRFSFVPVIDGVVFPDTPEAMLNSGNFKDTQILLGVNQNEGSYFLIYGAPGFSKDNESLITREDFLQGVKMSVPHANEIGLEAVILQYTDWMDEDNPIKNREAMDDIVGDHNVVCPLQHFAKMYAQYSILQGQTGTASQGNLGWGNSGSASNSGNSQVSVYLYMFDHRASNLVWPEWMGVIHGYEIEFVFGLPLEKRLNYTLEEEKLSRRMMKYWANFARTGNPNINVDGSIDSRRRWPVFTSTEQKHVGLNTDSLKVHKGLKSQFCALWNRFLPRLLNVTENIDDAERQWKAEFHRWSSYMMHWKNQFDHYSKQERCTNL
Description: Inhibition of electric eel AchE using acetylcholine as substrate preincubated for 15 mins followed by substrate addition measured for 5 mins by Ellman method

in vitro [4] = details: human, HepG2 cells
Description: Hepatotoxicity against human HepG2 cells assessed as cell viability at 300 uM after 24 hrs by MTT assay relative to control

in vitro [5] = details: human, HepG2 cells; remark: listed apart in the source
Description: Hepatotoxicity against human HepG2 cells assessed as cell viability at 30 uM after 24 hrs by MTT assay relative to control

in vitro [6] = details: human, HepG2 cells; remark: listed apart in the source
Description: Hepatotoxicity against human HepG2 cells assessed as cell viability at 100 uM after 24 hrs by MTT assay relative to control

in vitro [7] = details: human, HepG2 cells; remark: listed apart in the source
Description: Hepatotoxicity against human HepG2 cells assessed as cell viability at 10 uM after 24 hrs by MTT assay relative to control

in vitro [8] = details: human, HepG2 cells; remark: listed apart in the source
Description: Hepatotoxicity against human HepG2 cells assessed as cell viability at 1 uM after 24 hrs by MTT assay relative to control

in vitro [9] = details: human, HepG2 cells; remark: listed apart in the source
Description: Hepatotoxicity against human HepG2 cells assessed as cell viability at 3 uM after 24 hrs by MTT assay relative to control

Cerebral cortex neuron [10] = assay: Neuroprotective activity in Wistar rat embryo primary cortical neuron using DEVD-AMC as flurogenic substrate assessed as inhibition of SNP-induced cell necrosis by measuring caspase 3 activity at 25 to 50 uM by spectroflurometric analysis in presence of serum relative to control; assay type: functional, cell-based
Cerebral cortex neuron [11] = assay: Neuroprotective activity in Wistar rat embryo primary cortical neuron using DEVD-AMC as flurogenic substrate assessed as inhibition of oligomycin A-induced cell death by measuring caspase 3 activity at 25 to 50 uM by spectroflurometric analysis in presence of serum relative to control; assay type: functional, cell-based
[12] = Neuroprotective activity in Wistar rat embryo primary cortical neuron using DEVD-AMC as flurogenic substrate assessed as inhibition of SNP-induced cell necrosis by measuring caspase 3 activity at 25 to 50 uM by spectroflurometric analysis relative to control; assay type: functional, Cerebral cortex neuron
[13] = Neuroprotective activity in Wistar rat embryo primary cortical neuron using DEVD-AMC as flurogenic substrate assessed as inhibition of oligomycin A-induced cell death by measuring caspase 3 activity at 25 to 50 uM by spectroflurometric analysis relative to control; assay type: functional, Cerebral cortex neuron
[14] = Toxicity in Wistar rat embryo primary cortical neuron assessed as increase in ROS formation at >25 uM; assay type: cell-based; details: cerebral cortex neuron
[15] = Neuroprotective activity in Wistar rat embryo primary cortical neuron assessed as reduction of SNP-induced cell death by measuring cell viability at 100 uM after 24 hrs by XTT assay relative to control; assay type: functional, Cerebral cortex neuron
[16] = Neuroprotective activity in Wistar rat embryo primary cortical neuron assessed as reduction of oligomycin A-induced cell death by measuring cell viability at 100 uM after 24 hrs by XTT assay relative to control; assay type: functional, Cerebral cortex neuron
[17] = Neuroprotective activity in Wistar rat embryo primary cortical neuron assessed as reduction of SNP-induced cell death by measuring cell viability after 24 hrs by XTT assay relative to control; assay type: functional, cell-based; details: Cerebral cortex neuron
[18] = Neuroprotective activity in Wistar rat embryo primary cortical neuron assessed as reduction of oligomycin A-induced cell death by measuring cell viability after 24 hrs by XTT assay relative to control; assay type: functional, cell-based; details: Cerebral cortex neuron
[19] = Neuroprotective activity in Wistar rat embryo primary cortical neuron assessed as reversal of SNP-induced ROS formation at 25 uM after 24 hrs by spectrofluorometric analysis relative to control; assay type: functional, Cerebral cortex neuron
[20] = Neuroprotective activity in Wistar rat embryo primary cortical neuron assessed as reversal of SNP-induced ROS formation at 10 uM after 24 hrs by spectrofluorometric analysis relative to control; assay type: functional, Cerebral cortex neuron
[21] = Neuroprotective activity in Wistar rat embryo primary cortical neuron assessed as reversal of SNP-induced ROS formation at 1 uM after 24 hrs by spectrofluorometric analysis relative to control; assay type: functional, Cerebral cortex neuron
SH-SY5Y = assay: Antioxidant activity in human SH-SY5Y cells assessed as decrease in H2O2-induced MDA level after 8 hrs by TBARS assay; assay type: functional, cell-based
[22] = target: Acetylcholinesterase (Electrophorus electricus) (UniProt O42275); assay: Noncompetitive inhibition of electric eel AchE using acetylcholine as substrate at 0.01 to 10 uM preincubated for 15 mins followed by substrate addition measured for 5 mins by Lineweaver-Burk plot analysis
Chain of Acetylcholinesterase (Electrophorus electricus) (O42275 24-633 limits assumed): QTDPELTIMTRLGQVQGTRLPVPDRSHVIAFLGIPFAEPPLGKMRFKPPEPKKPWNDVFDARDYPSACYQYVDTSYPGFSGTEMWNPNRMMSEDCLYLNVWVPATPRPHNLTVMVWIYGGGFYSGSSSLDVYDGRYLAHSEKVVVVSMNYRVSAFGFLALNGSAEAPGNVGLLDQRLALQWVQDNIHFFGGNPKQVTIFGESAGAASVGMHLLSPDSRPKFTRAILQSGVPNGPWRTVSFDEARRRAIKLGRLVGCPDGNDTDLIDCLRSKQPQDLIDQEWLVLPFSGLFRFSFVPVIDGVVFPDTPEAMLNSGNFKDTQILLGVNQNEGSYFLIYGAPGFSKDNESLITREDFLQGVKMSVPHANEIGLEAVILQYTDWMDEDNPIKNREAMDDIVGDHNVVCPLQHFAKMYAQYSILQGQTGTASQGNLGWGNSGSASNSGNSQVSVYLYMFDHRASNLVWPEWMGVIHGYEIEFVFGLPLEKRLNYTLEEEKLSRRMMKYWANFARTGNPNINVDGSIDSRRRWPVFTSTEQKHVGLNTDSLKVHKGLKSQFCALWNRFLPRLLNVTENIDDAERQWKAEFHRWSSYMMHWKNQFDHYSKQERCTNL

Acetylcholinesterase [23] = target: T1, Acetylcholinesterase; assay: Noncompetitive inhibition of electric eel AchE using acetylcholine as substrate preincubated for 15 mins followed by substrate addition measured for 5 mins by Dixon plot analysis
HepG2 [24] = assay: Hepatotoxicity against human HepG2 cells assessed as LDH release at 1 to 300 uM; assay type: toxicity, cell-based; details: hepg2, 300 µM

SMILES	Activity (HepG2 [2])	IC50 (Acetylcholinesterase [3]) [µM]	viability at 24 h, 300 µM (in vitro [4]) [%]	viability at 24 h, 30 µM (in vitro [5]) [%]	viability at 24 h, 100 µM (in vitro [6]) [%]	viability at 24 h, 10 µM (in vitro [7]) [%]	viability at 24 h, 1 µM (in vitro [8]) [%]	viability at 24 h, 3 µM (in vitro [9]) [%]	other results
CC(Cc1ccc(O)c(O)c1)C(C)Cc1ccc(O)c(O)c1 (stereo unspecified)									inhibition (Glycine max): 84%
Cc1c(C)c2c(c(C)c1O)CCC(C)(C(=O)O)O2 (stereo unspecified)									inhibition [1]: 63%
CN(C)c1ccc(C2c3ccc(O)cc3Oc3nc4c(c(N)c32)CCCC4)cc1 (racemic)	Dose-dependent effect	0.29	80.3	85.5	85.5	86.1	99	88.5	
COc1cc(C2c3ccc(O)cc3Oc3nc4c(c(N)c32)CCCC4)cc(OC)c1OC (racemic)	Dose-dependent effect	0.041	103	100	98.3	101	102	98.7	inhibition (Cerebral cortex neuron [10]): Active; inhibition (Cerebral cortex neuron [11]): Active; fold change (FC) [12]: 3.43; fold change (FC) [13]: 1.83; Activity [14]: Toxic; Activity [15]: 148.12%; Activity [16]: 81.08%; EC50 [17]: 3.47 µM; EC50 [18]: 1.11 µM; fold change (FC) [19]: 1.81; fold change (FC) [20]: 1.93; fold change (FC) [21]: 2.31; inhibition [1]: 85%; inhibition (Glycine max): 18%; Activity (SH-SY5Y): Dose-dependent effect; inhibition [22]: Active; Ki (Acetylcholinesterase [23]): 0.047 µM; Activity (HepG2 [24]): Non-toxic
Cc1ccc(C2c3ccc(O)cc3Oc3nc4c(c(N)c32)CCCC4)cc1 (racemic)	Dose-dependent effect	0.065	47.9	74.3	71.7	85.6	96.9	89.5	
COc1ccc(C2c3ccc(O)cc3Oc3nc4c(c(N)c32)CCCC4)cc1 (racemic)	Dose-dependent effect	0.53	75.5	95	85.9	94.1	97.3	96.8	
Nc1c2c(nc3c1C(c1ccc(Br)cc1)c1ccc(O)cc1O3)CCCC2 (racemic)	Dose-dependent effect	0.007	61.5	76.9	74.4	84.8	99	87.4	
Nc1c2c(nc3c1C(c1ccccc1)c1ccc(O)cc1O3)CCCC2 (racemic)	Dose-dependent effect	0.55	49.6	62.4	55.8	66.2	99.5	67.4	
Nc1c2c(nc3c1C(c1ccc(F)cc1)c1ccc(O)cc1O3)CCCC2 (racemic)	Dose-dependent effect	0.103	50.1	55.7	55.5	62.8	91	75.1	

Source: ChEMBL document CHEMBL3120120, “Toxicological and pharmacological evaluation, antioxidant, ADMET and molecular modeling of selected racemic chromenotacrines {11-amino-12-aryl-8,9,10,12-tetrahydro-7H-chromeno[2,3-b]quinolin-3-ols} for the potential prevention and treatment of Alzheimer's disease” (Eur J Med Chem, 2014)
